# Source: patent US7547696B2, “Aminoquinoline derivatives and their use as adenosine A3 ligands” (sanofi-aventis, priority 2003, dated 2009)
# Counter-ions that a name gives are not always drawn.
row,Structure (SMILES),melting point
1,"COc1ccc(C(=O)Nc2nc3ccc(N)cc3c(NCc3ccccc3)c2C#N)cc1 [Example 7, N-[6-amino-4-(benzylamino)-3-cyanoquinolin-2-yl]-4-methoxybenzamide]",228 to 230 °C
2,"COc1ccc(C(=O)Nc2nc3ccc(NS(=O)(=O)O)cc3c(NCc3ccccc3)c2C#N)cc1 (as salt: ammonium) [Example 11, {4-(Benzylamino)-3-cyano-2-[(4-methoxybenzoyl)amino]quinolin-6-yl}sulfamic acid]",220 to 222 °C
3,"CNc1ccc2nc(NC(=O)c3ccc(OC)cc3)c(C#N)c(NCc3ccccc3)c2c1 [Example 9, N-{4-(benzylamino)-3-cyano-6-(methylamino)quinolin-2-yl}-4-methoxybenzamide]",237 to 240 °C
4,"COc1ccc(C(=O)Nc2nc3ccc(NC=O)cc3c(NCc3cccs3)c2C#N)cc1 [Example 10, N-{3-Cyano-6-(formylamino)-4-[(2-thienylmethyl)amino]quinolin-2-yl]-4-methoxybenzamide]",223 to 226 °C
